Measurements taken from publication PMC6356585 (Viruses, 2018).
Structures can show the parent of a compound that is named as a salt. Where two headings read alike, the source gives them in different places.

Legend:
[1] = system: ZIKV SPH; assay: Autophagy compound library screen, ZIKV SPH titer (TCID50) in C6/36 cells; assay type: cell-based, Zika virus; settings: for activity at 10 µM: Zika virus, read-out: ZIKV SPH Relative Titer in C6/36 Cells
[2] = system: ZIKV SPH; assay: Autophagy compound library screen, ZIKV SPH titer (TCID50) in Vero cells; assay type: cell-based, Zika virus; settings: for activity at 10 µM: Zika virus, Vero, read-out: ZIKV SPH Relative Titer in Vero Cells
[3] = system: Vero cells; assay: Cell viability (CellTiter-Glo) of Vero cells; assay type: cell-based
[4] = system: C6/36 cells; assay type: cell-based, Ae. albopictus
[5] = 10 µM compound, MOI 0.1, 96 h, TCID50, ± SEM, three independent trials
[6] = 10 µM compound, MOI 0.1, 40 h, TCID50, ± SEM, three independent trials
[7] = 10 µM compound, 96 h, CellTiter-Glo, ± SEM, three independent trials
[8] = 10 µM compound, 40 h, CellTiter-Glo, ± SEM, three independent trials
[9] = C6/36, 10 µM compound, MOI 0.1, 96 h, TCID50, ± SEM, three independent trials

CCCCCCCCCCCCCCC[C@@H](O)[C@H](CO)NC(C)=O [C2-dihydroceramide]
ZIKV SPH Relative Titer in C6/36 Cells [1, 5]: 262.1 ± 51.7% of untreated control | ZIKV SPH Relative Titer in Vero Cells [2, 6]: 36.5 ± 3% of untreated control | Vero Viability ([3]; 10 µM): 101.3 ± 3.7% of untreated control | C6/36 Viability [4, 7]: 97 ± 5.8% of untreated control

CNc1ccc2oc(C[C@H]3O[C@@]4(CC[C@H]3C)O[C@H]([C@H](C)C(=O)c3ccc[nH]3)[C@H](C)C[C@H]4C)nc2c1C(=O)O [Compound A23187, A23187]
ZIKV SPH Relative Titer in C6/36 Cells [1, 5]: 0.0 ± 0% of untreated control | ZIKV SPH Relative Titer in Vero Cells [2, 6]: 0.5 ± 0.5% of untreated control | Vero Viability [3, 8]: 17.0 ± 6.7% of untreated control | C6/36 Viability [4, 7]: 1 ± 0% of untreated control

O[C@@H](CS)[C@@H](O)CS [DTT]
ZIKV SPH Relative Titer in C6/36 Cells [1, 5]: 145.7 ± 16.6% of untreated control | ZIKV SPH Relative Titer in Vero Cells [2, 6]: 60.2 ± 20.1% of untreated control | Vero Viability [3, 8]: 93.0 ± 1.5% of untreated control | C6/36 Viability [4, 7]: 79 ± 4.4% of untreated control

C[C@H](CCC(=O)[O-])[C@H]1CC[C@H]2[C@@H]3CC[C@@H]4C[C@H](O)CC[C@]4(C)[C@H]3C[C@H](O)[C@]12C.[Na+] [Deoxycholate·Na]
ZIKV SPH Relative Titer in C6/36 Cells [1, 5]: 90.6 ± 12.5% of untreated control | ZIKV SPH Relative Titer in Vero Cells [2, 6]: 76.6 ± 16.6% of untreated control | Vero Viability ([3]; 10 µM): 95.3 ± 2.6% of untreated control | C6/36 Viability [4, 7]: 83 ± 1% of untreated control

CCCC(=O)Nc1ncnc2c1ncn2[C@@H]1O[C@@H]2COP(=O)([O-])O[C@H]2[C@H]1OC(=O)CCC.[Na+] [Dibutyryl cAMP·Na]
ZIKV SPH Relative Titer in C6/36 Cells [1, 5]: 142.6 ± 63.9% of untreated control | ZIKV SPH Relative Titer in Vero Cells [2, 6]: 60.6 ± 36.7% of untreated control | Vero Viability ([3]; 10 µM): 98.3 ± 4.4% of untreated control | C6/36 Viability [4, 7]: 117 ± 10.7% of untreated control

COc1cc(CNC(=O)CCCCCCC(C)C)ccc1O [Dihydrocapsaicin]
activity at 10 µM [1, 9]: 64.1 ± 16% | activity at 10 µM [2, 6]: 28.7 ± 10.5% | Vero Viability ([3]; 10 µM): 92.3 ± 3.8% of untreated control | C6/36 Viability ([4]; 10 µM): 61 ± 2.2% of untreated control

CCCCCC[C@@H]([C@@H](C)O)n1cnc2c(N)ncnc21.Cl [EHNA·HCl]
ZIKV SPH Relative Titer in C6/36 Cells [1, 5]: 36.4 ± 9.1% of untreated control | ZIKV SPH Relative Titer in Vero Cells [2, 6]: 81.0 ± 7.6% of untreated control | Vero Viability ([3]; 10 µM): 92.3 ± 2% of untreated control | C6/36 Viability [4, 7]: 55 ± 4.2% of untreated control

COc1cc([C@@H]2c3cc4c(cc3[C@@H](O[C@@H]3O[C@@H]5CO[C@@H](C)O[C@H]5[C@H](O)[C@H]3O)[C@H]3COC(=O)[C@H]23)OCO4)cc(OC)c1O [Etoposide]
activity at 10 µM [1, 9]: 737 ± 89.3% | activity at 10 µM [2, 6]: 134 ± 34.3% | Vero Viability ([3]; 10 µM): 84.0 ± 3.6% of untreated control | C6/36 Viability [4, 7]: 119 ± 12.5% of untreated control

O=C1NCN(c2ccccc2)C12CCN(CCCC(c1ccc(F)cc1)c1ccc(F)cc1)CC2 [Fluspirilene]
activity at 10 µM [1, 9]: 1 ± 0.7% | activity at 10 µM [2, 6]: 2.5 ± 0.6% | Vero Viability ([3]; 10 µM): 56.7 ± 16% of untreated control | C6/36 Viability [4, 7]: 26 ± 10.3% of untreated control

CN(C)CCCn1cc(C2=C(c3c[nH]c4ccccc34)C(=O)NC2=O)c2ccccc21 [Go6850]
ZIKV SPH Relative Titer in C6/36 Cells [1, 5]: 1.4 ± 1.4% of untreated control | ZIKV SPH Relative Titer in Vero Cells [2, 6]: 1.3 ± 0.9% of untreated control | Vero Viability [3, 8]: 36.0 ± 9% of untreated control | C6/36 Viability [4, 7]: 21 ± 0% of untreated control

C[C@H](CCC(=O)O)C[C@H](C)C[C@H](C)C(=O)/C=C(\O)[C@H](C)C[C@H](C)C/C=C/[C@@H](C)[C@@H](O)[C@@H](C)[C@@H](O)C[C@@H]1CC[C@@](C)([C@H]2CC[C@@](C)([C@@H](C)O)O2)O1 [Ionomycin]
activity at 10 µM [1, 9]: 0% | activity at 10 µM [2, 6]: 0% | Vero Viability [3, 8]: 27.7 ± 10.4% of untreated control | C6/36 Viability [4, 7]: 1 ± 0.3% of untreated control

CC(Oc1ccc(O)cc1)(P(=O)(O)O)P(=O)(O)O [L-690,330]
ZIKV SPH Relative Titer in C6/36 Cells [1, 5]: 66.8 ± 2.6% of untreated control | ZIKV SPH Relative Titer in Vero Cells [2, 6]: 40.7 ± 10.6% of untreated control | Vero Viability [3, 8]: 93.7 ± 3.5% of untreated control | C6/36 Viability [4, 7]: 87 ± 4.6% of untreated control

[Cl-].[Li+] [Lithium Chloride]
ZIKV SPH Relative Titer in C6/36 Cells [1, 5]: 167.9 ± 68.4% of untreated control | ZIKV SPH Relative Titer in Vero Cells [2, 6]: 85.4 ± 18.7% of untreated control | Vero Viability [3, 8]: 87.0 ± 1% of untreated control | C6/36 Viability [4, 7]: 111 ± 10.7% of untreated control

CN(C)C(=O)C(CCN1CCC(O)(c2ccc(Cl)cc2)CC1)(c1ccccc1)c1ccccc1 [Loperamide HCl]
activity at 10 µM [1, 9]: 0.1 ± 0.1% | activity at 10 µM [2, 6]: 11.7 ± 3.3% | Vero Viability [3, 8]: 66.7 ± 17.4% of untreated control | C6/36 Viability [4, 7]: 12 ± 6.1% of untreated control

COC(=O)C1=C(C)NC(C)=C(C(=O)OCCCN2CCC(c3ccccc3)(c3ccccc3)CC2)[C@H]1c1cccc([N+](=O)[O-])c1 [Niguldipine]
activity at 10 µM ([1]; C6/36, 96 h): 0% | activity at 10 µM ([2]; 40 h): 0.2 ± 0.1% | Vero Viability ([3]; 10 µM): 30.0 ± 14.2% of untreated control | C6/36 Viability ([4]; 10 µM): 5 ± 2.1% of untreated control

COC(=O)Nc1nc2ccc(C(=O)c3cccs3)cc2[nH]1 [Nocodazole]
activity at 10 µM [1, 9]: 182 ± 39.5% | activity at 10 µM [2, 6]: 28.4 ± 23.9% | Vero Viability ([3]; 10 µM): 56.0 ± 9.6% of untreated control | C6/36 Viability ([4]; 10 µM): 58 ± 2.9% of untreated control

CNCCCN1c2ccccc2CCc2ccc(Cl)cc21.Cl [Norclomipramine HCl]
ZIKV SPH Relative Titer in C6/36 Cells [1, 5]: 13.4 ± 8.7% of untreated control | ZIKV SPH Relative Titer in Vero Cells [2, 6]: 3.9 ± 0.5% of untreated control | Vero Viability [3, 8]: 48.7 ± 22.9% of untreated control | C6/36 Viability [4, 7]: 19 ± 8.9% of untreated control

COc1cccc(-c2cc(=O)c3ccccc3o2)c1N [PD-98059]
ZIKV SPH Relative Titer in C6/36 Cells [1, 5]: 197.3 ± 40% of untreated control | ZIKV SPH Relative Titer in Vero Cells [2, 6]: 101.0 ± 23.3% of untreated control | Vero Viability [3, 8]: 90.7 ± 1.3% of untreated control | C6/36 Viability [4, 7]: 93 ± 8.4% of untreated control

O=S(=O)(F)Cc1ccccc1 [PMSF]
ZIKV SPH Relative Titer in C6/36 Cells [1, 5]: 258.0 ± 145.2% of untreated control | ZIKV SPH Relative Titer in Vero Cells [2, 6]: 89.0 ± 7% of untreated control | Vero Viability [3, 8]: 98.3 ± 2% of untreated control | C6/36 Viability [4, 7]: 81 ± 6.4% of untreated control

NS(=O)(=O)C#Cc1ccccc1 [Pifithrin-µ]
ZIKV SPH Relative Titer in C6/36 Cells [1, 5]: 75.3 ± 27.5% of untreated control | ZIKV SPH Relative Titer in Vero Cells [2, 6]: 38.5 ± 12.4% of untreated control | Vero Viability ([3]; 10 µM): 49.0 ± 15% of untreated control | C6/36 Viability [4, 7]: 72 ± 3.2% of untreated control

C=CCNc1ncnc2ccc(Br)cc12 [SMER28]
ZIKV SPH Relative Titer in C6/36 Cells [1, 5]: 38.7 ± 12.2% of untreated control | ZIKV SPH Relative Titer in Vero Cells [2, 6]: 65.0 ± 5.6% of untreated control | Vero Viability [3, 8]: 92.7 ± 3.5% of untreated control | C6/36 Viability [4, 7]: 36 ± 5.3% of untreated control

Cc1cccc(Nc2nc(-c3ccncc3)cs2)c1 [STF-62247]
ZIKV SPH Relative Titer in C6/36 Cells [1, 5]: 169.8 ± 45.9% of untreated control | ZIKV SPH Relative Titer in Vero Cells [2, 6]: 45.0 ± 21.4% of untreated control | Vero Viability [3, 8]: 77.3 ± 11.7% of untreated control | C6/36 Viability [4, 7]: 49 ± 9.3% of untreated control

CNC(=O)c1cc(Oc2ccc(NC(=O)Nc3ccc(Cl)c(C(F)(F)F)c3)cc2)ccn1 [Sorafenib tosylate]
activity at 10 µM [1, 9]: 9.4 ± 8.8% | activity at 10 µM [2, 6]: 5.8 ± 1.8% | Vero Viability [3, 8]: 58.3 ± 9.9% of untreated control | C6/36 Viability [4, 7]: 23 ± 8.8% of untreated control

Cc1ccc(C(=O)Nc2ccc(S(=O)(=O)[O-])c3cc(S(=O)(=O)[O-])cc(S(=O)(=O)[O-])c23)cc1NC(=O)c1cccc(NC(=O)Nc2cccc(C(=O)Nc3cc(C(=O)Nc4ccc(S(=O)(=O)[O-])c5cc(S(=O)(=O)[O-])cc(S(=O)(=O)[O-])c45)ccc3C)c2)c1.[Na+].[Na+].[Na+].[Na+].[Na+].[Na+] [Suramin·6Na]
ZIKV SPH Relative Titer in C6/36 Cells [1, 5]: 86.6 ± 23.2% of untreated control | ZIKV SPH Relative Titer in Vero Cells [2, 6]: 107.4 ± 44.8% of untreated control | Vero Viability ([3]; 10 µM): 92.0 ± 1.2% of untreated control | C6/36 Viability [4, 7]: 86 ± 8.4% of untreated control
